Experimental findings from US6960574B2, “Antagonists of RF-amide neuropeptides” (University of Florida, priority 2002, dated 2005) are described below.

Square brackets hold non-standard residues; d marks the D form. Peptide text beside a SMILES is read from it. * marks the point of attachment. ξ: configuration not given here. Dansyl = CN(C)c1cccc2c(S(=O)(=O)*)cccc12; ξL = CC(C)CC(N)C(=O)O

The experiment has as its system receptor labeled by the radioiodinated analogue of 1 (4, [125I]-YLFQPQRF-NH2); neuropeptide FF receptor. As to the kind of experiment: Competitive radioligand binding against 4 ([125I]Y8F-amide). The conditions noted are these: mixture-based positional scanning; difference from averaged radioligand displacement of whole library (0); about 80 a.u. = 10-fold change in Ki. Background: In a radioligand displacement assay an active substance lowers the binding of a labelled ligand.

Take `CC[C@H](C)[C@H](NS(=O)(=O)c1cccc2c(N(C)C)cccc12)C(=O)N[C@H](C(=O)N[C@@H](CCCNC(=N)N)C(N)=O)[C@@H](C)O` [Dansyl-ITR-amide] (Dansyl-Ile-Thr-Arg-NH2): the “Relative Binding Index (RBI)” value is −6 a.u.

For the compound `CC[C@H](C)[C@H](NS(=O)(=O)c1cccc2c(N(C)C)cccc12)C(=O)N[C@H](C(=O)N[C@@H](CCCNC(=N)N)C(N)=O)C(C)C` [Dansyl-IVR-amide] (Dansyl-Ile-Val-Arg-NH2), the “Relative Binding Index (RBI)” value is given as −16 a.u.

For `CC[C@H](C)[C@H](NS(=O)(=O)c1cccc2c(N(C)C)cccc12)C(=O)N[C@@H](Cc1c[nH]c2ccccc12)C(=O)N[C@@H](CCCNC(=N)N)C(N)=O` [Dansyl-IWR-amide] (Dansyl-Ile-Trp-Arg-NH2), the “Relative Binding Index (RBI)” value is given as −2 a.u.

With `CC[C@H](C)[C@H](NS(=O)(=O)c1cccc2c(N(C)C)cccc12)C(=O)N[C@@H](Cc1ccc(O)cc1)C(=O)N[C@@H](CCCNC(=N)N)C(N)=O` [Dansyl-IYR-amide] (Dansyl-Ile-Tyr-Arg-NH2), the “Relative Binding Index (RBI)” value was −12 a.u.

Regarding `C[C@H](NC(=O)[C@H](CCCCN)NS(=O)(=O)c1cccc2c(N(C)C)cccc12)C(=O)N[C@@H](CCCNC(=N)N)C(N)=O` [Dansyl-KAR-amide] (Dansyl-Lys-Ala-Arg-NH2), the “Relative Binding Index (RBI)” value is on record as −24 a.u.

With `CN(C)c1cccc2c(S(=O)(=O)N[C@@H](CCCCN)C(=O)N[C@@H](CC(=O)O)C(=O)N[C@@H](CCCNC(=N)N)C(N)=O)cccc12` [Dansyl-KDR-amide] (Dansyl-Lys-Asp-Arg-NH2), the “Relative Binding Index (RBI)” value came out at 7 a.u.

On to `CN(C)c1cccc2c(S(=O)(=O)N[C@@H](CCCCN)C(=O)N[C@@H](CCC(=O)O)C(=O)N[C@@H](CCCNC(=N)N)C(N)=O)cccc12` [Dansyl-KER-amide] (Dansyl-Lys-Glu-Arg-NH2), for which the “Relative Binding Index (RBI)” value came out at 25 a.u.

`CN(C)c1cccc2c(S(=O)(=O)N[C@@H](CCCCN)C(=O)N[C@@H](Cc3ccccc3)C(=O)N[C@@H](CCCNC(=N)N)C(N)=O)cccc12` [Dansyl-KFR-amide] (Dansyl-Lys-Phe-Arg-NH2): the “Relative Binding Index (RBI)” value is reported as 23 a.u.

Consider `CN(C)c1cccc2c(S(=O)(=O)N[C@@H](CCCCN)C(=O)NCC(=O)N[C@@H](CCCNC(=N)N)C(N)=O)cccc12` [Dansyl-KGR-amide] (Dansyl-Lys-Gly-Arg-NH2), for which the “Relative Binding Index (RBI)” value was 30 a.u.

Take `CN(C)c1cccc2c(S(=O)(=O)N[C@@H](CCCCN)C(=O)N[C@@H](Cc3c[nH]cn3)C(=O)N[C@@H](CCCNC(=N)N)C(N)=O)cccc12` [Dansyl-KHR-amide] (Dansyl-Lys-His-Arg-NH2): the “Relative Binding Index (RBI)” value is on record as 19 a.u.

For the compound `CCC(C)C(NC(=O)C(CCCCN)NS(=O)(=O)c1cccc2c(N(C)C)cccc12)C(=O)NC(CCCNC(=N)N)C(N)=O` (stereo not drawn) [Dansyl-KIR-amide] (Dansyl-Lys-Ile-Arg-NH2; configuration not given here), the “Relative Binding Index (RBI)” value amounted to 31 a.u.

As for `CN(C)c1cccc2c(S(=O)(=O)N[C@@H](CCCCN)C(=O)N[C@@H](CCCCN)C(=O)N[C@@H](CCCNC(=N)N)C(N)=O)cccc12` [Dansyl-KKR-amide] (Dansyl-Lys-Lys-Arg-NH2), the “Relative Binding Index (RBI)” value was 22 a.u.

Turning to `CC(C)CC(NC(=O)[C@H](CCCCN)NS(=O)(=O)c1cccc2c(N(C)C)cccc12)C(=O)N[C@@H](CCCNC(=N)N)C(N)=O` (some centres unmarked) [Dansyl-KLR-amide] (Dansyl-Lys-[ξL]-Arg-NH2), the “Relative Binding Index (RBI)” value is listed as 16 a.u.

As to `CSCC[C@H](NC(=O)[C@H](CCCCN)NS(=O)(=O)c1cccc2c(N(C)C)cccc12)C(=O)N[C@@H](CCCNC(=N)N)C(N)=O` [Dansyl-KMR-amide] (Dansyl-Lys-Met-Arg-NH2), the “Relative Binding Index (RBI)” value came to 25 a.u.

In the case of `CN(C)c1cccc2c(S(=O)(=O)N[C@@H](CCCCN)C(=O)N[C@@H](CC(N)=O)C(=O)N[C@@H](CCCNC(=N)N)C(N)=O)cccc12` [Dansyl-KNR-amide] (Dansyl-Lys-Asn-Arg-NH2), the “Relative Binding Index (RBI)” value amounted to 26 a.u.

With `CN(C)c1cccc2c(S(=O)(=O)N[C@@H](CCCCN)C(=O)N3CCC[C@H]3C(=O)N[C@@H](CCCNC(=N)N)C(N)=O)cccc12` [Dansyl-KPR-amide] (Dansyl-Lys-Pro-Arg-NH2), the “Relative Binding Index (RBI)” value is listed as 28 a.u.

On to `CN(C)c1cccc2c(S(=O)(=O)N[C@@H](CCCCN)C(=O)N[C@@H](CCC(N)=O)C(=O)N[C@@H](CCCNC(=N)N)C(N)=O)cccc12` [Dansyl-KQR-amide] (Dansyl-Lys-Gln-Arg-NH2), for which the “Relative Binding Index (RBI)” value was found to be 38 a.u.

Take `CN(C)c1cccc2c(S(=O)(=O)N[C@@H](CCCCN)C(=O)N[C@@H](CCCNC(=N)N)C(=O)N[C@@H](CCCNC(=N)N)C(N)=O)cccc12` [Dansyl-KRR-amide] (Dansyl-Lys-Arg-Arg-NH2): the “Relative Binding Index (RBI)” value is recorded as 23 a.u.

Take `CN(C)c1cccc2c(S(=O)(=O)N[C@@H](CCCCN)C(=O)N[C@@H](CO)C(=O)N[C@@H](CCCNC(=N)N)C(N)=O)cccc12` [Dansyl-KSR-amide] (Dansyl-Lys-Ser-Arg-NH2): the “Relative Binding Index (RBI)” value is given as 45 a.u.

Turning to `C[C@@H](O)[C@H](NC(=O)[C@H](CCCCN)NS(=O)(=O)c1cccc2c(N(C)C)cccc12)C(=O)N[C@@H](CCCNC(=N)N)C(N)=O` [Dansyl-KTR-amide] (Dansyl-Lys-Thr-Arg-NH2), the “Relative Binding Index (RBI)” value came to 30 a.u.

As for `CC(C)[C@H](NC(=O)[C@H](CCCCN)NS(=O)(=O)c1cccc2c(N(C)C)cccc12)C(=O)N[C@@H](CCCNC(=N)N)C(N)=O` [Dansyl-KVR-amide] (Dansyl-Lys-Val-Arg-NH2), the “Relative Binding Index (RBI)” value stood at 20 a.u.

On to `CN(C)c1cccc2c(S(=O)(=O)N[C@@H](CCCCN)C(=O)N[C@@H](Cc3c[nH]c4ccccc34)C(=O)N[C@@H](CCCNC(=N)N)C(N)=O)cccc12` [Dansyl-KWR-amide] (Dansyl-Lys-Trp-Arg-NH2), for which the “Relative Binding Index (RBI)” value was 34 a.u.

Consider `CN(C)c1cccc2c(S(=O)(=O)N[C@@H](CCCCN)C(=O)N[C@@H](Cc3ccc(O)cc3)C(=O)N[C@@H](CCCNC(=N)N)C(N)=O)cccc12` [Dansyl-KYR-amide] (Dansyl-Lys-Tyr-Arg-NH2), for which the “Relative Binding Index (RBI)” value was 23 a.u.

For `CC(C)C[C@H](NS(=O)(=O)c1cccc2c(N(C)C)cccc12)C(=O)N[C@@H](C)C(=O)N[C@@H](CCCNC(=N)N)C(N)=O` [Dansyl-LAR-amide] (Dansyl-Leu-Ala-Arg-NH2), the “Relative Binding Index (RBI)” value is recorded as −81 a.u.

Take `CC(C)C[C@H](NS(=O)(=O)c1cccc2c(N(C)C)cccc12)C(=O)N[C@@H](CC(=O)O)C(=O)N[C@@H](CCCNC(=N)N)C(N)=O` [Dansyl-LDR-amide] (Dansyl-Leu-Asp-Arg-NH2): the “Relative Binding Index (RBI)” value is reported as −50 a.u.

Turning to `CC(C)C[C@H](NS(=O)(=O)c1cccc2c(N(C)C)cccc12)C(=O)N[C@@H](CCC(=O)O)C(=O)N[C@@H](CCCNC(=N)N)C(N)=O` [Dansyl-LER-amide] (Dansyl-Leu-Glu-Arg-NH2), the “Relative Binding Index (RBI)” value is recorded as −32 a.u.

As for `CC(C)C[C@H](NS(=O)(=O)c1cccc2c(N(C)C)cccc12)C(=O)N[C@@H](Cc1ccccc1)C(=O)N[C@@H](CCCNC(=N)N)C(N)=O` [Dansyl-LFR-amide] (Dansyl-Leu-Phe-Arg-NH2), the “Relative Binding Index (RBI)” value is listed as −33 a.u.

As for `CC(C)C[C@H](NS(=O)(=O)c1cccc2c(N(C)C)cccc12)C(=O)NCC(=O)N[C@@H](CCCNC(=N)N)C(N)=O` [Dansyl-LGR-amide] (Dansyl-Leu-Gly-Arg-NH2), the “Relative Binding Index (RBI)” value was −27 a.u.

On to `CC(C)C[C@H](NS(=O)(=O)c1cccc2c(N(C)C)cccc12)C(=O)N[C@@H](Cc1cnc[nH]1)C(=O)N[C@@H](CCCNC(=N)N)C(N)=O` [Dansyl-LHR-amide] (Dansyl-Leu-His-Arg-NH2), for which the “Relative Binding Index (RBI)” value is recorded as −38 a.u.

As for `CC[C@H](C)[C@H](NC(=O)[C@H](CC(C)C)NS(=O)(=O)c1cccc2c(N(C)C)cccc12)C(=O)N[C@@H](CCCNC(=N)N)C(N)=O` [Dansyl-LIR-amide] (Dansyl-Leu-Ile-Arg-NH2), the “Relative Binding Index (RBI)” value is on record as −26 a.u.

For `CC(C)C[C@H](NS(=O)(=O)c1cccc2c(N(C)C)cccc12)C(=O)N[C@@H](CCCCN)C(=O)N[C@@H](CCCNC(=N)N)C(N)=O` [Dansyl-LKR-amide] (Dansyl-Leu-Lys-Arg-NH2), the “Relative Binding Index (RBI)” value is listed as −34 a.u.

With `CC(C)C[C@H](NC(=O)[C@H](CC(C)C)NS(=O)(=O)c1cccc2c(N(C)C)cccc12)C(=O)N[C@@H](CCCNC(=N)N)C(N)=O` [Dansyl-LLR-amide], the “Relative Binding Index (RBI)” value is recorded as −40 a.u.

Turning to `CSCC[C@H](NC(=O)[C@H](CC(C)C)NS(=O)(=O)c1cccc2c(N(C)C)cccc12)C(=O)N[C@@H](CCCNC(=N)N)C(N)=O` [Dansyl-LMR-amide] (Dansyl-Leu-Met-Arg-NH2), the “Relative Binding Index (RBI)” value is −32 a.u.

Regarding `CC(C)C[C@H](NS(=O)(=O)c1cccc2c(N(C)C)cccc12)C(=O)N[C@@H](CC(N)=O)C(=O)N[C@@H](CCCNC(=N)N)C(N)=O` [Dansyl-LNR-amide] (Dansyl-Leu-Asn-Arg-NH2), the “Relative Binding Index (RBI)” value was −31 a.u.

For `CC(C)C[C@H](NS(=O)(=O)c1cccc2c(N(C)C)cccc12)C(=O)N1CCC[C@H]1C(=O)N[C@@H](CCCNC(=N)N)C(N)=O` [Dansyl-LPR-amide] (Dansyl-Leu-Pro-Arg-NH2), the “Relative Binding Index (RBI)” value was −29 a.u.

On to `CC(C)C[C@H](NS(=O)(=O)c1cccc2c(N(C)C)cccc12)C(=O)N[C@@H](CCC(N)=O)C(=O)N[C@@H](CCCNC(=N)N)C(N)=O` [Dansyl-LQR-amide] (Dansyl-Leu-Gln-Arg-NH2), for which the “Relative Binding Index (RBI)” value is listed as −18 a.u.

For the compound `CC(C)C[C@H](NS(=O)(=O)c1cccc2c(N(C)C)cccc12)C(=O)N[C@@H](CCCNC(=N)N)C(=O)N[C@@H](CCCNC(=N)N)C(N)=O` [Dansyl-LRR-amide] (Dansyl-Leu-Arg-Arg-NH2), the “Relative Binding Index (RBI)” value is given as −33 a.u.

For `CC(C)C[C@H](NS(=O)(=O)c1cccc2c(N(C)C)cccc12)C(=O)N[C@@H](CO)C(=O)N[C@@H](CCCNC(=N)N)C(N)=O` [Dansyl-LSR-amide] (Dansyl-Leu-Ser-Arg-NH2), the “Relative Binding Index (RBI)” value is on record as −11 a.u.
